The values that follow come from patent publication US6121290A, “Use of GABA uptake inhibitors as anti-tussive agents” (SmithKline Beecham Corporation, priority 1998, dated 2000).

Each structure is given as a SMILES string.

Experiment [1] has as its system citric acid-induced cough. In words: Citric acid-induced cough in guinea pigs (anti-tussive activity in vivo). To be noted: 0.4M citric acid, 30 min pre-treatment; for Treated (incidences of cough): coughs in 13 minutes; for % Inhibition: cough inhibition vs control. More on the design: species or system Male Hartley Guinea pigs. As for the experimental part: Citric acid was nebulized for only one minute to the animals. Coughs were determined by examination of the flow signal and observation of the test animals.
To perform the experiments Male Hartley Guinea pigs weighing between 550, and 750 g were placed into a clear plastic exposure chamber with an internal volume of 6 l. A bias air flow was applied to the chamber at a flow rate of 2 l/min for the duration of the experiment.
An incidence of cough was denoted by a larger than normal inspiration (at least twice normal tidal deflection) followed immediately by a rapid, forceful expiration (more than three times the normal excursion from baseline). A cough was easily distinguished from animal movement, augmented breaths and gasps by close inspection of the data. Because a sneeze and cough have similar flow patterns, they were differentiated by visual observation of the animals.
Test compounds were administered via the IP route, and the pre-treatment time was 30 min. The aerosol was administered to the animals by connecting a small volume ultrasonic nebulizer (AeroSonic model 5000D Devilbis Sumerset, Pa.) to the bias-flow immediately before the exposure chamber inlet. The animals were challenged with 0.4M citric acid aerosol solution. A volume of 2 ml of citric acid solution was placed in the ultrasonic nebulizer. In one minute approximately 0.5 ml of the solution was nebulized to each animal. This has been previously shown to induce the cough reflex. The incidences of cough in 13 minutes (aerosolization time+observation time,) as well as time to onset of the first cough were recorded.

The subject of experiment [2] is GABA uptake. To be noted: in words, from cited literature; cited from earlier work.
Experiment [3] relates to citric acid-induced cough. Put plainly: Citric acid-induced cough in guinea pigs (anti-tussive activity in vivo). To be noted: 0.4M citric acid; for Treated (incidences of cough): coughs in 13 minutes; for % Inhibition: cough inhibition vs control. Also noted: species or system Male Hartley Guinea pigs.

`O=C(O)[C@@H]1CNCC[C@@H]1O` (relative stereo) [Compound 6, cis4-hydroxy-3-piperidinecarboxylic acid]: in experiment [1] (10 mg ip), the “Treated (incidences of cough)” value is on record as 16.3 and the % Inhibition – broadly, the change of the read-out against control, counted positive when it falls – was 8.21%. In addition, in experiment [1] (20 mg ip), the “Treated (incidences of cough)” value is 8.6 and the “% Inhibition” value is 35.82%.

For `Cc1ccsc1C(=CCCN1CCC[C@@H](C(=O)O)C1)c1sccc1C` [(R)-1-[4,4-bis(3-methyl-2-thienyl)-3-butenyl]-3-piperidinecarboxylic acid, reference compound], the “GABA uptake inhibitory activity” value in experiment [2] is recorded as “having GABA uptake inhibitory activity”.

For `O=C(O)CC1CCN(CCC=C(c2ccccc2)c2ccccc2)C1` (centres unmarked) [Compound 1, N-(4,4-diphenyl-3-butenyl)-3-pyrrolidineacetic acid], in experiment [1] (20 mg ip), the “Treated (incidences of cough)” value is 7.2 and the “% Inhibition” value is 53.13%.

For the molecule `O=C(O)C1CCCNC1` (centres unmarked) [Compound 2, 3-piperidinecarboxylic acid], in experiment [1] (20 mg ip), the “Treated (incidences of cough)” value turned out to be 9.75 and the “% Inhibition” value is reported as 28.36%.

On to `O=C(O)[C@@H]1CCCN(CCC=C(c2ccccc2)c2ccccc2)C1` [Compound 3, (R)-N-(4,4-diphenyl-3-butenyl)-3-piperidinecarboxylic acid], for which the “Treated (incidences of cough)” value was determined as 6.6 in experiment [1] (1 mg ip), 2.8 in experiment [1] (10 mg ip), 8.2 in experiment [3] (10 mg po) and 8 in experiment [3] (30 mg po). The “% Inhibition” value in experiment [1] (1 mg ip) worked out at 49.23%; in experiment [1] (10 mg ip), 78.46%; in experiment [3] (10 mg po) it was 42.25%; in experiment [3] (30 mg po), 43.66%. For the same molecule, the “GABA uptake inhibitory activity” value in experiment [2] was “having GABA uptake inhibitory activity”.

For `O=C(O)C1=CCCNC1` [Compound 4, 1,2,5,6-tetrahydro-3-pyridinecarboxylic acid], the results for the “Treated (incidences of cough)” value in experiment [1] (6 mg ip) and in experiment [1] (20 mg ip) were 7.6 and 4.75, respectively. The “% Inhibition” value is 48.30% in experiment [1] (6 mg ip) and 67.69% in experiment [1] (20 mg ip). The “GABA uptake inhibitory activity” value in experiment [2] was “having GABA uptake inhibitory activity”.

As for `O=C(O)C1=CCCN(CCC=C(c2ccccc2)c2ccccc2)C1` [Compound 5, N-(4,4-diphenyl-3-butenyl)-1,2,5,6-tetrahydro-3-pyridinecarboxylic acid], the “Treated (incidences of cough)” value in experiment [1] (1 mg ip) is reported as 15.4; in experiment [1] (3 mg ip), 12.4; in experiment [1] (30 mg ip), 1. Also, the “% Inhibition” value was determined as 5.79% in experiment [1] (1 mg ip), 20.53% in experiment [1] (3 mg ip) and 92.48% in experiment [1] (30 mg ip).
